Read-outs that look alike come from different tables or passages of the source.

One may read the IC50 as the concentration that gives 50% inhibition.

Assay [1] concerns the target His-tagged KRAS G12D protein (Homo sapiens, UniProt P01116, G12D). Nature of the assay: KRAS G12D TR-FRET Assay.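 Further: europium anti-His antibody paired with streptavidin-d2 as FRET partners, initial 30 min incubation, then peptide 1 h and detection reagents 1 h, all at room temperature.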 Format: binding. The note with it: biotinylated KRPep-2d substrate, 10 μM GDP. Background: TR-FRET usually uses a lanthanide donor and a delayed reading to cut background.
Assay [2] relates to Phosphorylation of ERK1/2 in A-427 cells. Nature of the assay: Phospho-ERK1/2 MSD Assay. The note with it: 2 h compound treatment, read-out: pERK (A427 cells) IC50. Type of assay: cell-based. As for the experimental part: A-427 (ATCC® HTB-53™) cells were cultured in RPMI 1640 Medium (ThermoFisher Scientific 11875093) containing 10% fetal bovine serum (ThermoFisher Scientific 16000044) and 1× penicillin-streptomycin-glutamine (ThermoFisher Scientific 10378016). Sixteen hours prior to compound treatment, A-427 cells were seeded in 96-well cell culture plates at a density of 25,000 cells/well and incubated at 37° C., 5% CO2. A compound dose-response titration was diluted in growth media, added to appropriate wells of a cell culture plate, and then incubated at 37° C., 5% CO2 for 2 h. Following compound treatment, cells were washed with ice-cold Dulbecco's phosphate-buffered saline, no Ca^2+ or Mg^2+ (ThermoFisher Scientific 14190144), and then lysed in RIPA buffer (50 mM Tris-HCl pH 7.5, 1% Igepal, 0.5% sodium deoxycholate, 150 mM NaCl, and 0.5% sodium dodecyl sulfate) containing protease inhibitors (Roche 4693132001) and phosphatase inhibitors (Roche 4906837001). Phosphorylation of ERK1/2 in compound-treated lysates was assayed using Phospho-ERK1/2 Whole Cell Lysate kits (Meso Scale Discovery K151DWD) according to the manufacturer's protocol. Assay plates were read on a Meso Scale Discovery Sector Imager 6000, and data were analyzed using a 4-parameter logistic model to calculate IC50 values.

Assay [3] addresses GDP-bound KRAS protein (aa 1-169), containing both G12D and C118A amino acid substitutions (Homo sapiens, UniProt P01116, C118A/G12D). Nature of the assay: KRAS G12D Coupled Nucleotide Exchange Assay.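 Further: IC50 obtained by fitting the AlphaScreen signal with a four-parameter logistic curve.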 The conditions noted are these: 2 h compound pre-incubation; SOS-mediated nucleotide exchange, cRAF AlphaScreen readout. Type of assay: biochemical. A general note: In Alpha technology, singlet oxygen from a donor bead excites a nearby acceptor bead.

GDP-bound KRAS protein (aa 1-169), containing both G12D and C118A amino acid substitutions, sequence (P01116 1-169 isoform P01116-2 G12D/C118A): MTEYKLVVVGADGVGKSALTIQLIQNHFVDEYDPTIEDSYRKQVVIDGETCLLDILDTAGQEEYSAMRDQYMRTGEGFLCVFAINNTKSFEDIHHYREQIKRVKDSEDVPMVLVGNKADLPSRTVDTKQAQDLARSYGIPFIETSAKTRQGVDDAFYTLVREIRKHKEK
His-tagged KRAS G12D protein, sequence (P01116 1-188 isoform P01116-2 G12D): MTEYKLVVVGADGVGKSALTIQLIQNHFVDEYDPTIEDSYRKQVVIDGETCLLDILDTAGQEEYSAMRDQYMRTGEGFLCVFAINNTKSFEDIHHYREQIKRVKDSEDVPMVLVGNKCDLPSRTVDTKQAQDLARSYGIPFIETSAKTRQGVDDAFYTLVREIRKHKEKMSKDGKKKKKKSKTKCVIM

`CN1CC[C@@H]1COc1nc(N2CCNCC2)c2cc(Cl)c(-c3cccc4sc(N)nc34)c(F)c2n1` [Example 58, 4-(6-chloro-8-fluoro-2-(((R)-1-methylazetidin-2-yl)methoxy)-4-(piperazin-1-yl)quinazolin-7-yl)benzo[d] thiazol-2-amine]: the half-inhibitory concentration (IC50) in assay [1] worked out at 444 nM; in assay [2] (Homo sapiens, A-427, 2 h), 18200 nM. The “Avg 2 h Coupled Exchange IC50” value in assay [3] turned out to be 176 nM.
The matching figures for `CN1CCC[C@H]1COc1nc(C2=CCNCC2)c2cc(Cl)c(-c3cccc4sc(N)nc34)c(F)c2n1` [Example 144, 4-(6-chloro-8-fluoro-2-(((S)-1-methylpyrrolidin-2-yl)methoxy)-4-(1,2,3,6-tetrahydropyridin-4-yl)quinazolin-7-yl)benzo[d]thiazol-2-amine]: 79 nM, 2300 nM and 37 nM.
Turning to `Nc1nc2c(-c3c(Cl)cc4c(N5CCNCC5)nc(OCC56CCCCN5CCC6)nc4c3F)cccc2s1` (stereo not drawn) [Example 57, 4-(6-chloro-8-fluoro-2-((hexahydro-indolizin-8a(1H)-yl)methoxy)-4-(piperazin-1-yl)quinazolin-7-yl)benzo[d] thiazol-2-amine], the IC50 in assay [1] was 265 nM; in assay [2] (Homo sapiens, A-427, 2 h), over 25000 nM. Also, in assay [3], the “Avg 2 h Coupled Exchange IC50” value was found to be 141 nM.
As to `Nc1nc2c(-c3c(Cl)cc4c(N5C6CCNCC5CC6)nc(OC[C@@]56CCCN5C[C@H](F)C6)nc4c3F)ccc(F)c2s1` (single isomer, unassigned) [Example 33], the 50% inhibitory concentration (IC50) stood at 63 nM in assay [1] and 879 nM in assay [2]. Further, the “Avg 2 h Coupled Exchange IC50” value in assay [3] came out at 10 nM.
As for `CN1C[C@H](F)C[C@H]1COc1nc(N2C[C@H]3C[C@@H](C2)N3)c2cc(Cl)c(-c3ccc(F)c4sc(N)nc34)c(F)c2n1` [Example 7, 4-(4-((1R,5S)-3,6-diazabicyclo[3.1.1]heptan-3-yl)-6-chloro-8-fluoro-2-(((2S,4R)-4-fluoro-1-methylpyrrolidin-2-yl)methoxy)quinazolin-7-yl)-7-fluorobenzo[d] thiazol-2-amine], the half-inhibitory concentration (IC50) is 12 nM in assay [1] and 531 nM in assay [2] (Homo sapiens, A-427, 2 h). Moreover, the “Avg 2 h Coupled Exchange IC50” value in assay [3] is 6 nM.
The corresponding values for `CCc1cc2c(N3CCNCC3)nc(OC[C@@H]3CCCN3C)nc2c(F)c1-c1cccc2sc(N)nc12` [Example 152, 4-(6-Ethyl-8-fluoro-2-(((S)-1-methylpyrrolidin-2-yl)methoxy)-4-(piperazin-1-yl)quinazolin-7-yl)benzo[d]thiazol-2-amine] are 217 nM, over 25000 nM and 95 nM.
`Nc1nc2c(-c3c(Cl)cc4c(N5C6CCNCC5CC6)nc(OC[C@@]56CCCN5C[C@H](F)C6)nc4c3F)ccc(F)c2s1` (single isomer, unassigned) [Example 32]: the IC50 in assay [1] was 54 nM; in assay [2], 164 nM. For the same compound, in assay [3], the “Avg 2 h Coupled Exchange IC50” value was 16 nM.
In the case of `CN1CCC[C@H]1COc1nc(N2C3CNCC2C3)c2cc(Cl)c(-c3cccc4sc(N)nc34)c(F)c2n1` [Example 18, 4-(4-(3,6-diazabicyclo[3.1.1]heptan-6-yl)-6-chloro-8-fluoro-2-(((S)-1-methylpyrrolidin-2-yl)methoxy)quinazolin-7-yl)benzo[d]thiazol-2-amine], the IC50 was 158 nM in assay [1] and over 25000 nM in assay [2] (Homo sapiens, A-427, 2 h). The “Avg 2 h Coupled Exchange IC50” value in assay [3] amounted to 49 nM.
The matching figures for `CN1CCC[C@H]1CCOc1nc(N2C[C@H]3C[C@@H](C2)N3)c2cc(Cl)c(-c3ccc(F)c4sc(N)nc34)c(F)c2n1` [Example 11, 4-(4-((1R,5S)-3,6-diazabicyclo[3.1.1]heptan-3-yl)-6-chloro-8-fluoro-2-(2-((S)-1-methylpyrrolidin-2-yl)ethoxy)quinazolin-7-yl)-7-fluorobenzo[d] thiazol-2-amine]: 29 nM, 8250 nM and 11 nM.
